Experimental data taken from the METLIN SMRT retention time set (Domingo-Almenara et al. 2019).

Experiment: gradient 5% acetonitrile 3 min, to 50% in 2 min, to 85% in 15 min, held 3 min, 100 µL/min
Details: column: Zorbax Extend-C18 2.1 x 50 mm; eluents: water / acetonitrile, 0.1% formic acid
How it was run: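 Mixtures of ~100 pure standards were chromatographed on a Zorbax Extend-C18 column (2.1 × 50 mm, 1.8 μm) at 100 μL/min using water and acetonitrile, each with 0.1% formic acid. Detection used a quadrupole time-of-flight mass spectrometer in positive and negative ionization mode, and data collection spanned 3 months. Retention time was obtained from adduct peaks picked computationally and each checked manually.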

Structure (SMILES)	RP-LC retention time [s]
COC(=O)c1ccc(NC(=O)Cn2c(=O)c3cc(C)nn3c3ncccc32)cc1	700
O=C1COc2ccc(-c3csc(NC(=O)c4ccc(Cl)cc4)n3)cc2N1	899
CCCC(=O)Nc1nc(-c2ccc3c(c2)NC(=O)C(C)O3)cs1 (centres undefined)	806
O=C(Cc1ccc(NC(=O)NC2CC2)cc1)NCC(F)(F)F	611
CCCCNC(=O)C1CCC(=O)N(c2ccc(OC)cc2)C1c1ccc(F)cc1 (centres undefined)	757
CC(=O)N1CCN(c2nc(C)cc(N3CCCC3)n2)CC1	580
CCNC(=O)C1N(C(C)C)C(=O)C12CCCCC2 (centres undefined)	630
Cn1c(=O)c(SCC(=O)NC2CCN(Cc3ccccc3)CC2)nc2ccccc21	624
CCOC(=O)Cn1c(=O)c2c(nc3n2CC(C)CN3c2ccc(OC)cc2)n(C)c1=O (centres undefined)	888
Fc1ccccc1CN1CCc2nc(N3CCN(c4ccccc4F)CC3)ncc2C1	771
CCNc1cc(N2CCCC(CCC(=O)Nc3ccc(OC)cc3OC)C2)ncn1 (centres undefined)	671
CN(C)C[C@@H]1CN(c2ncccn2)C[C@H]1NC(=O)C1(C)CCOCC1	532
O=C(NCc1ccc(C(F)(F)F)cc1)C1CCN(c2nnc(-c3ccccc3)o2)CC1	901
COc1cccc(NC(=O)Cn2nc(N3CCSCC3)c3ccccc3c2=O)c1	908
CCN(CC)CCNC(=O)CSCc1ccc(C)cc1	631
O=C(c1ccsc1)N1CCN(c2nc(CN3CCCCC3)cs2)CC1	597
O=C(Cn1cccc1-c1nc(-c2ccc(Cl)cc2)cs1)NCCN1CCOCC1	711
O=C(COc1cccc(Cl)c1)Nc1nc(-c2ccc(Br)cc2)cs1	1260
Cc1ccc(CNC(=O)c2ccc3c(c2)CNCCO3)cc1	617
CNC(=O)c1sc2nc(-c3cccc(OC)c3)c(NC(C)(C)C)n2c1C	780
CCCNC(=O)c1ccc2c(=O)n(Cc3ccccc3)c(N3CCCC3)nc2c1	719
Cc1cc(Cl)ccc1NC(=O)C1CCCN(S(=O)(=O)c2c[nH]c(C(=O)N3CCCC3)c2)C1 (centres undefined)	852
CCc1ccc(NC(=O)N2CCC(OC3CCN(S(C)(=O)=O)CC3)CC2)cc1	770

Structure (SMILES)	RP-LC retention time [s]
CCCNc1cc(N2CCC(CCC(=O)N(C)CCC)CC2)ncn1	589
Cc1ccc(-c2nnc(-c3cccc(S(=O)(=O)N(C)C)c3)o2)cc1	986
O=C1[C@@H]2Cc3c([nH]c4ccccc34)C(CCc3ccccc3)N2C(=O)CN1Cc1ccco1 (some centres undefined)	1000
COC(=O)c1c(C)[nH]c(C(=O)N2CCC(CC(=O)NCc3ccc4c(c3)OCO4)CC2)c1C	770
Cc1cccc(Nc2c(-c3ccc(Cl)cc3)nc3cnccn23)c1C	1110
O=C(Nc1nc(-c2cccnc2)cs1)C1CN(c2nc3ccccc3s2)C1	592
O=C(O)CCC1CCN(c2cc(NC3CC3)ncn2)CC1	587
Cc1nnc(NC(=O)c2ccc3c(c2)OCO3)s1	646
Cc1ccc(Nc2c(-c3ccc(Br)cc3)nc3cnccn23)cc1Cl	1180
Cc1ccc(NC(=O)Cn2ccc3sccc3c2=O)cc1F	785
COc1cccc(-n2ccc(=O)c(-c3nc(-c4ccc5c(c4)OCO5)no3)n2)c1	799
Cc1cc2c(cc1S(=O)(=O)N1CCCC1C(=O)N1CCN(C3CCCCC3)CC1)OCC(=O)N2 (centres undefined)	584
CC(C)CCN1CCC(N2CCN(S(=O)(=O)Cc3cccc(Cl)c3)CC2)C1=O (centres undefined)	699
Cc1cc(C)cc(N2CCC(NC(=O)Nc3ccc(C)cc3C)C2=O)c1 (centres undefined)	938
Cc1ccc(Nc2c(-c3ccc(C)cc3)nc3nc(C)cc(C)n23)cc1	780
CC(C)NC(=O)C1CCN(C(=O)c2ncn3c2COC(c2ccc(F)cc2)C3)CC1 (centres undefined)	679
CC(C)n1c(CCNC(=O)Cc2ccc(F)cc2)nc2cccnc21	672
Cc1sc(-c2noc(C(C)C)n2)cc1S(=O)(=O)N1CCC(C(=O)N(C)Cc2ccco2)CC1	1070
COc1ccccc1N1CCN(c2cc(SCC(=O)NCc3ccccc3)ncn2)CC1	823
COC(=O)c1c(C)[nH]c(C(=O)N2CCC(CC(=O)NCc3ccc(C)cc3)CC2)c1C	762
CCCOc1ccc(CNC(=O)C2CCN(c3ncnc4c3oc3ccccc34)CC2)cc1	841
Cc1nn(-c2nc(-c3ccccc3)cs2)c(C)c1CC(=O)Nc1cccc(C(F)(F)F)c1	1270
COC(=O)c1ccccc1S(=O)(=O)Nc1ccc2c(c1)CCC(=O)N2	697

Structure (SMILES)	RP-LC retention time [s]
CC1(c2nc(-c3ccccc3)no2)CCCN(Cc2ncon2)C1 (centres undefined)	754
COc1cc2c(cc1OC)C(C(=O)N1CCOCC1)C(c1ccc(SC)cc1)N(C)C2=O (centres undefined)	726
Cn1ncc2c(N3CCSCC3)nc(C(=O)NC3CC3)nc21	670
Cc1cc(Br)ccc1-c1ccc(CNCCCN(C)C)o1	927
COC(=O)c1c(C)[nH]c(C(=O)N2CCC(CC(=O)N3CCN(c4ccccn4)CC3)CC2)c1C	606
CCN1CCN(CCNC(=O)C2CCN(Cc3cn(C)c4ccc(Cl)cc34)CC2)CC1	561
Cc1cc2nn(CC(=O)Nc3ccc(F)cc3F)c(=O)n2c(Nc2ccc(C)c(F)c2)n1	1080
Cc1cc(=O)n(CC(=O)Nc2ccc(C(C)C)cc2)c(N2CCOCC2)n1	774
Cc1cccc2cc(-c3noc(-c4ccccc4)n3)c(NCCc3ccc(S(N)(=O)=O)cc3)nc12	1440
CCn1cc(-c2ccc(F)cc2)cc1C(=O)O	861
O=c1n(Cc2cc(F)cc(F)c2)nc2c(S(=O)(=O)N3CCc4ccccc4C3)cccn12	966
O=C1CC(c2nc(-c3ccc4c(c3)OCO4)no2)CN1c1ccc2c(c1)OCCO2 (centres undefined)	895
Cc1ccc(Cc2nnc(NC(=O)c3cc(C)n(C(C)C)n3)o2)cc1	802
O=C(Cn1cccc1-c1nnc(C2CCC2)o1)N1CCN(Cc2ccc3c(c2)OCO3)CC1	688
COc1ccccc1CN1C[C@@H]2C(=O)N(Cc3ccc4c(c3)OCO4)C(=O)[C@@H]2C1	724
Cc1cc(NC(=O)CSc2nc3ccccc3s2)no1	810
CCOc1ccc(NC(=O)Cn2ncc3c(c2=O)N(C2CC2)C(=O)CS3)cc1	671
CCOc1cccc(C2c3[nH]c4ccccc4c3CCN2C(=O)c2cccnc2)c1 (centres undefined)	968
COc1ccccc1CNC(=O)CCc1csc(NC(=O)c2ccc(F)cc2)n1	792
Cc1ccc(Cl)c(NC(=O)c2[nH]c3cc(C)sc3c2CN2CCOCC2)c1	724
O=C1CCCCC(C(=O)Nc2cccc(Cl)c2)N1 (centres undefined)	712
CCN1C(=O)c2cccnc2Sc2cc(NC(=O)CCc3ccccc3)ccc21	950
Cc1c(-c2cccc(NC(=O)c3cccs3)c2)nc2ncccn12	638

Structure (SMILES)	RP-LC retention time [s]
COc1ccc(S(=O)(=O)N2CCc3c(c(-c4nnc(-c5ccccc5)o4)nn3C)C2)cc1Cl	990
O=C(Nc1nnc(-c2cccs2)o1)c1ccc([N+](=O)[O-])o1	677
O=C(NCc1ccccc1F)C1CCCN(c2nc3ccsc3c(=O)n2Cc2ccccc2)C1 (centres undefined)	943
CCCC(=O)Nc1ccc(-n2cnc(C(=O)NC3CCCCC3)c2)nc1	758
CCOc1cccc(CNC(=O)c2cn(C)nc2S(=O)(=O)N2CCSCC2)c1	889
COC(=O)C1=CC(=O)N2CCN=C2S1	691
O=C(Cc1c[nH]c2ccccc12)N1CCN2CCS(=O)(=O)N(C3CC3)C(=O)C2C1 (centres undefined)	743
CCOCCOC(=O)C1=C(C)NC2=C(C(=O)CC(C)(C)C2)C1c1cccc(OC)c1OC (centres undefined)	791
COc1cc(NC(=O)c2cn3c(n2)CCCC3)cc(OC)c1	614
COC1CN(c2cccc(F)c2)C12CCN(S(=O)(=O)Cc1ccccc1F)CC2 (centres undefined)	1170
CC(C)CCNC(=O)c1ccc2ncnc(N3CCCC3)c2c1	635
CCn1ncn2cc(S(=O)(=O)Nc3ccc(C)c(C)c3)cc2c1=O	930
Cc1ccc(CNC(=O)c2cc3sc(C)c(CN4CCOCC4)c3[nH]2)o1	656
CCn1c(C)c(-c2nc(C3CC3)no2)c(S(=O)(=O)NC2CCCC2)c1C	1060
CCOC(=O)c1c(C)[nH]c(C(=O)N2CCCC(C(=O)NCCc3ccco3)C2)c1C (centres undefined)	781
C=Cc1ccc(CN2N=C(C(=O)N3CCOCC3)S(=O)(=O)c3ccc(Cl)cc32)cc1	951
CCOc1ccccc1N1CCN(S(=O)(=O)c2nn(C)cc2C(=O)NCCCOC(C)C)CC1	971
O=c1c2scc(-c3ccc(F)cc3)c2ncn1CCOc1ccccc1	1070
CCn1nccc1-c1cccc(-c2noc(-c3ccc(C)cc3)n2)c1	1310
COc1cc([N+](=O)[O-])ccc1NC(=O)c1ccccc1S(C)(=O)=O	749
